Consider 15 molecules from patent US20060258644A1, “Pyrrolobenzodiazepines and heteroaryl, aryl and cycloalkylamino ketone derivatives as follicle stimulating hormone receptor (FSH-R) antagonists” (Wyeth, priority 2005, published 2006).

Data set [1] concerns the target T1, human FSH receptor (Homo sapiens, UniProt P23945).
T1 construct: host or cells: CHO-K1 (CHO FSH-R 6CRE-Luc, 1D7 cells)
T1 sequence (P23945 18-695): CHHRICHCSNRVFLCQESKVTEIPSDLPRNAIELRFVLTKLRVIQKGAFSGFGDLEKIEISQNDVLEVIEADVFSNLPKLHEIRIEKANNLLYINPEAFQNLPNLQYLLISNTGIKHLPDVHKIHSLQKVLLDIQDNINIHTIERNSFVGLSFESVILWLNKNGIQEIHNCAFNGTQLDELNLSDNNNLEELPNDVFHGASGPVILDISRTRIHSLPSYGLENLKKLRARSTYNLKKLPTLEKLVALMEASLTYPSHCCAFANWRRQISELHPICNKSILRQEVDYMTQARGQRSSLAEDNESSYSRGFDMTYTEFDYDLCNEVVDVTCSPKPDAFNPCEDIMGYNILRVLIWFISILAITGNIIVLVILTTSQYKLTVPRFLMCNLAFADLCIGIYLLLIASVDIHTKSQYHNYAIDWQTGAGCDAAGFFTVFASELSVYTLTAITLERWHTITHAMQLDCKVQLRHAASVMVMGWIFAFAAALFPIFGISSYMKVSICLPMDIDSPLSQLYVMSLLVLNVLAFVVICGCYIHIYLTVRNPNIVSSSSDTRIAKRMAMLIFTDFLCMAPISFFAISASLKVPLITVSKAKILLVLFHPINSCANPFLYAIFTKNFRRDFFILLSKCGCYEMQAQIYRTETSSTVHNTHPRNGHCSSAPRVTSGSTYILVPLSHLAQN
The experiment in a line: FSH receptor-dependent CRE-luciferase reporter gene assay (CHO FSH-R 6CRE-Luc cells). The class given is cell-based. Particulars: for inhibition at 30 µM: test concentration in μM in parentheses (30 μM), % inhibition of the response to the EC50 of FSH. The source says:
Follicle-Stimulating Hormone Receptor-Dependent CRE-Luciferase Reporter Gene Assay for the Identification of Follicle-Stimulating Hormone (FSH) Antagonists
This procedure was used to identify and determine the relative potencies of human FSH receptor antagonists using a Chinese hamster ovarian cell line that stably produces the human FSH receptor and a luciferase reporter gene regulated by cAMP response elements.
The compounds were subsequently diluted in DMSO to working dilutions of 1 and 20 or 30 mM for 2-dose testing format and 1 μM-10 mM for dose-response format. The DMSO dilutions were diluted 500-fold in sterile growth medium [D-MEM/F-12 (GIBCO/BRL; Grand Island N.Y.) containing 15 mM HEPES, 2 mM 1-glutamine, pyridoxine hydrochloride, phenol red and 5% FetalClone II (HyClone Laboratories, Inc; Logan, Utah), 0.2% DMSO, 100 units penicillin G/ml, and 100 μg streptomycin sulfate/ml (GIBCO/BRL)]. The concentration of the vehicle in each of the compound dilutions was the same. • Positive Controls: Purified human FSH (>98%) was purchased from Cortex Biochem, Inc. (San Leandro, Calif.) and WAY-162002 (an FSH-R thiazolidinone antagonist) was obtained from the Wyeth Research compound repository. Preparation of Cells
The CHO FSH-R 6CRE-Luc cells (1D7 cells) were obtained from Affymax (Palo Alto, Calif.). These Chinese hamster ovary cells (CHO—K1) were genetically engineered to stably express the recombinant human FSH receptor gene and a luciferase reporter gene under the regulation of 6 copies of a cAMP response element. The cells were plated one day prior to treatment into 96-well white opaque plates at a density of 50,000 cells/100 μl/well in growth medium. On the day of treatment, the growth medium was removed from the wells by aspiration and 50 μl of fresh growth medium was added to each well. The cells were incubated at 37° C. in a humidified incubator with 5% CO2/95% air.
The treated cells were incubated for 4 hours at 37° C. in a humidified incubator with 5% CO2/95% air. At the end of-the incubation period, luciferase activity was measured by chemiluminescence using a commercially available kit (LucScreen, Tropix, Inc., Bedford, Mass.) according to the manufacturer's specifications, except that Buffer 1 and Buffer 2 were mixed together in equal proportion prior to the addition of 100 μl of the combined reagents to each well. Chemiluminescence was detected using a luminometer (EG & G Berthold Microlumat LB 96 P, Wallac, Gaithersburg, Md.) with chemiluminescence measured for 1 sec/well. Background luminescence was measured for each well prior to the addition of the LucScreen reagent.
In the 96-well 2-dose format, each compound was tested in duplicate at each dose. […] One plate was used to test a maximum of 22 compounds.
The EC50 of purified human FSH alone was tested in triplicate with each test compound. The doses chosen to test each compound were extrapolated from the initial 2-dose screening process. Along with the test compounds, purified human FSH was also tested in a dose response (0.03, 0.1, 0.3, 1, 3, 10, and 30 ng/ml) for a positive control and quality control. One plate was used for 3 test compounds and the FSH positive control.
Luciferase activity is expressed as relative light units/sec/well. Luciferase activity in antagonist was compared to the appropriate negative and positive controls. For 2-dose testing, results are reported as luciferase activity and are expressed as % inhibition of the response obtained from the EC50 of FSH. For dose-response testing, results are reported as IC50 values. Data were analyzed statistically by one-way analysis of variance with appropriate weighting and transformation and relevant paired test as determined by Biometrics (Wyeth Research, Princeton, N.J.). IC50 values were calculated using the Stat/Excel program developed by Biometrics with appropriate weighting and transformation.
For orientation: Reporter assays use an easily measured gene product as a stand-in for the process of interest.

Setting [2] is: dose-response in presence of EC50 of purified human FSH, read-out: CRE IC50.

By inhibition is commonly meant how much of the control response was suppressed. As a reminder, the melting point is the temperature, or range, at which the solid turns liquid. A word on the IC50: it is the concentration at which inhibition is half-maximal.

Counter-ions that a name gives are not always drawn. Like-named read-outs stand apart in the source and are kept apart here. Some results are limits rather than exact numbers.

Regarding `O=C(CCc1ccccc1)c1ccc2n1Cc1ccccc1N(C(=O)COc1ccc(Cl)cc1)C2` [Example 11, 1-{10-[(4-Chlorophenoxy)acetyl]-10,11-dihydro-5H-pyrrolo[2,1-c][1,4]benzodiazepin-3-yl}-3-phenylpropan-1-one], the melting point was 126 to 128 °C. Besides, the inhibition at 30 µM in data set [1] was determined as 8%.
The molecule `Cc1cc(Cl)ccc1OCC(=O)N1Cc2ccc(C(=O)c3ccc(C(C)(C)C)cc3)n2Cc2ccccc21` [Example 8, (4-Tert-butylphenyl){10-[(4-chloro-2-methylphenoxy)acetyl]-10,11-dihydro-5H-pyrrolo[2,1-c][1,4]benzodiazepin-3-yl}methanone] yielded a melting point of 168 °C. The IC50 in data set [1] (setting [2]) was > 30 µM.
As to `Cc1ccccc1-c1ccc(C(=O)N2Cc3ccc(C(=O)CNc4cccnc4)n3Cc3ccccc32)cc1C` [Example 1, 1-{10-[(2,2′-Dimethyl-1,1′-biphenyl-4-yl)carbonyl]-10,11-dihydro-5H-pyrrolo[2,1-c][1,4]benzodiazepin-3-yl}-2-(pyridin-3-ylamino)ethanone formic acid salt], the inhibition at 30 µM in data set [1] was 4%.
In turn, `Cc1cc(Cl)ccc1OCC(=O)N1Cc2ccc(C(=O)c3cccc4ccccc34)n2Cc2ccccc21` [Example 6, {10-[(4-Chloro-2-methylphenoxy)acetyl]-10,11-dihydro-5H-pyrrolo[2,1-c][1,4]benzodiazepin-3-yl}(1-naphthyl)methanone] showed a melting point of 130 to 134 °C. The IC50 in data set [1] (setting [2]) is > 30 µM.
For the molecule `O=C(CCc1cccnc1)c1ccc2n1Cc1ccccc1N(C(=O)c1ccc(-c3ccccc3)cc1)C2` [Example 2, 1-[10-(1,1′-Biphenyl-4-ylcarbonyl)-10,11-dihydro-5H-pyrrolo[2,1-c][1,4]benzodiazepin-3-yl]-3-pyridin-3-ylpropan-1-one formic acid salt], the IC50 in data set [1] (setting [2]) came to 10.7 µM.
On to `Cc1ccccc1-c1ccc(C(=O)N2Cc3ccc(C(=O)CCc4cccnc4)n3Cc3ccccc32)cc1` [Example 15, 1-{10-[(2′-Methyl-1,1′-biphenyl-4-yl)carbonyl]-10,11-dihydro-5H-pyrrolo[2,1-c][1,4]benzodiazepin-3-yl}-3-pyridin-3-ylpropan-1-one], for which the melting point fell in the range of 135 to 136 °C. Besides, in data set [1] (setting [2]), the IC50 stood at 12.1 µM.
In turn, `O=C(c1ccc(-c2ccccc2)cc1)c1ccc2n1Cc1ccccc1N(C(=O)COc1ccc(Cl)cc1)C2` [Example 13, 1,1′-Biphenyl-4-yl{10-[(4-chlorophenoxy)acetyl]-10,11-dihydro-5H-pyrrolo[2,1-c][1,4]benzodiazepin-3-yl}methanone] had a melting point of 155 to 157 °C. For the same molecule, the inhibition at 30 µM in data set [1] stood at 14%.
`Cc1cc(Cl)ccc1OCC(=O)N1Cc2ccc(C(=O)CCc3ccccc3)n2Cc2ccccc21` [Example 5, 1-{10-[(4-Chloro-2-methylphenoxy)acetyl]-10,11-dihydro-5H-pyrrolo[2,1-c][1,4]benzodiazepin-3-yl}-3-phenylpropan-1-one]: the melting point lay in the range of 130 to 134 °C. In addition, the IC50 in data set [1] (setting [2]) was > 30 µM.
Take `CC(C)(C)c1ccc(C(=O)c2ccc3n2Cc2ccccc2N(C(=O)COc2ccc(Cl)cc2)C3)cc1` [Example 12, (4-tert-Butylphenyl){10-[(4-chlorophenoxy)acetyl]-10,11-dihydro-5H-pyrrolo[2,1-c][1,4]benzodiazepin-3-yl}methanone]: the melting point was found to be 171 °C. The IC50 in data set [1] (setting [2]) was > 30 µM.
Molecule `Cc1cc(Cl)ccc1OCC(=O)N1Cc2ccc(C(=O)c3ccc(Cl)cc3)n2Cc2ccccc21` [Example 4, {10-[(4-Chloro-2-methylphenoxy)acetyl]-10,11-dihydro-5H-pyrrolo[2,1-c][1,4]benzodiazepin-3-yl}(4-chlorophenyl)methanone] registered a melting point of 175 to 176 °C. The inhibition at 30 µM in data set [1] stood at 22%.
Turning to `Cc1cc(Cl)ccc1OCC(=O)N1Cc2ccc(C(=O)c3ccccc3-c3ccccc3)n2Cc2ccccc21` [Example 9, 1,1′-Biphenyl-2-yl{10-[(4-chloro-2-methylphenoxy)acetyl]-10,11-dihydro-5H-pyrrolo[2,1-c][1,4]benzodiazepin-3-yl}methanone], in data set [1] (setting [2]), the IC50 was > 30 µM.
With `Cc1cc(Cl)ccc1OCC(=O)N1Cc2ccc(C(=O)c3ccc(-c4ccccc4)cc3)n2Cc2ccccc21` [Example 7, 1,1′-Biphenyl-4-yl{10-[(4-chloro-2-methylphenoxy)acetyl]-10,11-dihydro-5H-pyrrolo[2,1-c][1,4]benzodiazepin-3-yl}methanone], the melting point was 102 to 105 °C. The IC50 in data set [1] (setting [2]) was > 30 µM.
Consider `O=C(c1ccc(Cl)cc1)c1ccc2n1Cc1ccccc1N(C(=O)COc1ccc(Cl)cc1)C2` [Example 10, {10-[(4-Chlorophenoxy)acetyl]-10,11-dihydro-5H-pyrrolo[2,1-c][1,4]benzodiazepin-3-yl}(4-chlorophenyl)methanone], for which the melting point came out at 195 °C. Besides, the IC50 in data set [1] (setting [2]) is > 30 µM.
Take `O=C(c1ccccc1-c1ccccc1)c1ccc2n1Cc1ccccc1N(C(=O)COc1ccc(Cl)cc1)C2` [Example 14, 1,1′-Biphenyl-2-yl{10-[(4-chlorophenoxy)acetyl]-10,11-dihydro-5H-pyrrolo[2,1-c][1,4]benzodiazepin-3-yl}methanone]: the half-inhibitory concentration (IC50) in data set [1] (setting [2]) was > 30 µM.
Turning to `NC(=O)c1cccc(N2C(=O)[C@@H](CC(=O)NCCc3c[nH]c4ccccc34)S[C@H]2c2ccc(C#Cc3ccccc3)s2)c1` (relative stereo) [3-[(2S*,5R*)-5-{[2-(1H-Indol-3-yl)-ethylcarbamoyl]-methyl}-4-oxo-2-(5-phenylethynyl-thiophen-2-yl)-thiazolidin-3-yl]-benzamide, reference compound], the IC50 in data set [1] (positive control, in the presence of EC50 of purified human FSH, read-out: IC50 in CRE-luciferase assay) was found to be 2 µM.
